# Measurements from patent publication US20260373266A1, “PROTEIN DEGRADERS AND USES THEREOF” (KYMERA THERAPEUTICS, INC., priority 2022, published 2026).
# Target: T1, DCAF1 WD40 domain (residues 1077-1390) (Homo sapiens, UniProt Q9Y4B6)
# T1 construct: DCAF1 WD40 domain (residues 1077-1390)
# Experiment: DCAF1 binding assay by SPR (Biacore 8K+), DCAF1-3 KD
# Conditions: 25 °C, read-out: DCAF1-3 SPR (KD)
# T1 sequence (Q9Y4B6 1077-1390): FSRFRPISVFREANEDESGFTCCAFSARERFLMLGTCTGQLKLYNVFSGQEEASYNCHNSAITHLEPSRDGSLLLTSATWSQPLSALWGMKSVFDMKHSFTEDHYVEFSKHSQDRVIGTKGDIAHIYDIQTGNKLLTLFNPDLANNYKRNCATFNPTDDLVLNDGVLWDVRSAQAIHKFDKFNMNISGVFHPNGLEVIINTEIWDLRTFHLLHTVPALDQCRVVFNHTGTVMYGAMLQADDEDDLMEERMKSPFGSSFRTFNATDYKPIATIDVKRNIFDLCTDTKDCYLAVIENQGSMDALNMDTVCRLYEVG
row,SMILES,Kd [µM]
1,C[C@H]1CCCCN1c1ccnc2c1CCN2C1CCCN(c2cccc(F)c2)C1 (some centres unmarked) [I-788],< 10
2,Fc1cccc(N2CCCC(N3CCc4c(N5CCCCC5)ccnc43)C2)c1 (centres unmarked) [I-789],< 10
3,Cc1c(F)ccc(F)c1-c1c(C(=O)N[C@@H](CC(N)=O)c2cccc(Cl)c2)c[nH]c1C(=O)c1cccc(O)c1 [I-792],< 10
4,NC(=O)C[C@H](NC(=O)c1cn[nH]c1-c1c(F)ccc(F)c1C(F)(F)F)c1cccc(Cl)c1 [I-793],< 10
5,Cc1c(F)ccc(F)c1-c1c(C(=O)N[C@@H](CC(N)=O)c2cccc(Cl)c2)c[nH]c1C#N [I-798],< 10
6,Cc1c(F)ccc(F)c1-c1c(C(=O)N[C@@H](CC(N)=O)c2cccc(Cl)c2)c[nH]c1C(=O)COCCOCCOCCOCCOCCOCCN [I-802],< 10
7,C=CC(=O)NCCOCC1CCN(c2ccnc(N[C@@H]3CCCN(c4cccc(F)c4)C3)c2)CC1 [I-803],10 to 100
8,OC1(C2CCCCC2)CCC[C@@H](Nc2cc(N3CCCCC3)ccn2)C1 (some centres unmarked) [I-804],10 to 100
9,CN(CCN)C(=O)C[C@H](NC(=O)c1cn[nH]c1-c1ccccc1F)c1cccc(Cl)c1 [I-807],< 10
10,Fc1cccc(N2CCC[C@@H](N3CCCc4c(N5CCCCC5)ccnc43)C2)c1 [I-808],> 200
11,Cc1c(F)ccc(F)c1-c1c(C(=O)N[C@@H](CC(N)=O)c2cccc(Cl)c2)c[nH]c1C(=O)COCCOCCOCCOCCOCCN [I-809],< 10
12,COc1ccc(C(=O)c2[nH]cc(C(=O)N[C@@H](CC(N)=O)c3cccc(Cl)c3)c2-c2c(F)ccc(F)c2C)cc1 [I-810],< 10
13,Oc1ccc(F)cc1N1CCC[C@H]2[C@@H]1CCN2c1cc(N2CCCCC2)ccn1 [I-813],10 to 100
14,CN1CCN(CCC2CCN(c3ccnc(N4CC[C@@H]5[C@H]4CCCN5c4cccc(F)c4)c3)CC2)CC1 [I-816],< 10
15,Cc1c(F)ccc(F)c1-c1[nH]ncc1C(=O)N[C@H](CC(N)=O)c1ccc(F)c(Cl)c1 [I-818],< 10
16,Cc1c(F)ccc(F)c1-c1[nH]ncc1C(=O)N[C@@H](CC(N)=O)c1ccc(F)c(Cl)c1 [I-819],10 to 100
17,CNC(=O)C[C@H](NC(=O)c1c[nH]c(C(=O)COCCOCCOCCOCCOCCN)c1-c1c(F)ccc(F)c1C)c1cccc(Cl)c1 [I-820],< 10

row,SMILES,Kd [µM]
1,Cc1c(F)ccc(F)c1-c1c(C(=O)N[C@@H](CC(=O)N(C)C)c2cccc(Cl)c2)c[nH]c1C(=O)COCCOCCOCCOCCOCCN [I-822],< 10
2,OCCC[C@H]1C[C@@H]2[C@H](CCCN2c2cccc(F)c2)N1c1cc(N2CCCCC2)ccn1 [I-826],10 to 100
3,Cc1n[nH]c(C(F)(F)F)c1C(=O)N[C@@H](CC(N)=O)c1ccccc1 [I-837],> 200
4,COc1ccc(-c2[nH]ncc2C(=O)NC(C)C(=O)Nc2ccccc2)cc1 (centres unmarked) [I-838],> 200
5,Cc1c(F)ccc(F)c1-c1[nH]ncc1C(=O)N[C@@H](CC(=O)N1CCOCC1)c1cccc(Cl)c1 [I-842],< 10
6,Cc1c(F)ccc(F)c1-c1c(C(=O)NC(CC(N)=O)c2cccc(Cl)c2)cn(C)c1C(=O)COCCOCCOCCOCCOCCN (centres unmarked) [I-844],< 10
7,C=CC(=O)NCCCN1CCN(c2ccnc3c2CCN3C2CCCN(c3cccc(F)c3)C2)CC1 (centres unmarked) [I-845],10 to 100
8,C=CC(=O)NCCCN1CCN(c2ccnc(N3CC[C@@H]4[C@H]3CCCN4c3cccc(F)c3)c2)CC1 [I-846],10 to 100
9,C=CC(=O)NCCCCC1CCN(c2ccnc(N3CC[C@@H]4[C@H]3CCCN4c3cccc(F)c3)c2)CC1 [I-852],< 10
10,CCC(=O)NC1CCC2(CC1)CCN(c1cccc(N[C@@H]3CCCN(c4cccc(F)c4)C3)c1)CC2 [I-853],< 10
11,COc1cc(N2CCC[C@@H](Nc3cc(N4CCOCC4)ccn3)C2)cnc1CO [I-854],10 to 100
12,NCCCc1ccc(N2CCC[C@@H](Nc3cc(N4CCOCC4)ccn3)C2)cc1 [I-856],10 to 100
13,OCCc1ccc(N2CCC[C@@H](Nc3cc(N4CCOCC4)ccn3)C2)cc1 [I-860],> 200
14,OCCCc1cccc(N2CCC[C@@H](Nc3cc(N4CCOCC4)ccn3)C2)c1 [I-862],10 to 100
15,NC(=O)Cc1ccc(N2CCC[C@@H](Nc3cc(N4CCOCC4)ccn3)C2)cc1 [I-863],> 200
16,NCCCc1cccc(N2CCC[C@@H](Nc3cc(N4CCOCC4)ccn3)C2)c1 [I-867],10 to 100
17,NCc1ccc(N2CCC[C@@H](Nc3cc(N4CCOCC4)ccn3)C2)cc1 [I-868],< 10

# Further lines, results first:
row,Kd [µM],SMILES
1,< 10,Fc1cccc(N2CCCC(N3CCc4c(N5CC6CC(C6)C5)ccnc43)C2)c1 (centres unmarked) [I-790]
2,< 10,NCCOCCOCCOCCOCCCc1ccc(C(=O)c2[nH]cc(C(=O)N[C@@H](CC(N)=O)c3cccc(Cl)c3)c2-c2c(F)ccc(F)c2F)cc1 [I-791]
3,< 10,O[C@@H]1CCCN(c2ccnc(N3CC[C@@H]4[C@H]3CCCN4c3cccc(F)c3)c2)C1 [I-794]
4,< 10,COc1cccc(C(=O)c2[nH]cc(C(=O)N[C@@H](CC(N)=O)c3cccc(Cl)c3)c2-c2c(F)ccc(F)c2C)c1 [I-795]
5,10 to 100,COc1ccc(F)cc1N1CCC[C@@H]2[C@H]1CCN2c1cc(N2CCCCC2)ccn1 [I-796]
6,10 to 100,O[C@H]1CCCN(c2ccnc(N3CC[C@H]4[C@@H]3CCCN4c3cccc(F)c3)c2)C1 [I-797]
7,> 200,O[C@@H]1CCCN(c2ccnc(N3CC[C@H]4[C@@H]3CCCN4c3cccc(F)c3)c2)C1 [I-799]
8,< 10,O[C@H]1CCCN(c2ccnc(N3CC[C@@H]4[C@H]3CCCN4c3cccc(F)c3)c2)C1 [I-800]
9,< 10,Cc1cccc(F)c1-c1c(C(=O)N[C@@H](CC(N)=O)c2cccc(Cl)c2)c[nH]c1C(=O)c1ccc(N2CCCCC2)cc1 [I-801]
10,< 10,Cc1c(F)ccc(F)c1-c1c(C(=O)N[C@@H](CC(N)=O)c2cccc(Cl)c2)c[nH]c1C(=O)c1ccc(CCCOCCOCCOCCOCCOCCN)cc1 [I-805]
11,< 10,Cc1c(F)ccc(F)c1-c1c(C(=O)N[C@@H](CC(N)=O)c2cccc(Cl)c2)c[nH]c1C(=O)c1ccc(CCCOCCOCCOCCN)cc1 [I-806]
12,< 10,Nc1ccc(F)cc1N1CCC[C@@H]2[C@H]1CCN2c1cc(N2CCCCC2)ccn1 [I-811]
13,10 to 100,Oc1ccc(F)cc1N1CCC[C@@H]2[C@H]1CCN2c1cc(N2CCCCC2)ccn1 [I-812]
14,10 to 100,NC(=O)CC(Cc1ccccc1)NC(=O)c1cn[nH]c1-c1cc(F)ccc1F (centres unmarked) [I-814]
15,< 10,CN1CCN(CC2CCN(c3ccnc(N4CC[C@@H]5[C@H]4CCCN5c4cccc(F)c4)c3)CC2)CC1 [I-815]
16,< 10,Cc1ccc(S(=O)(=O)c2[nH]cc(C(=O)N[C@@H](CC(N)=O)c3cccc(Cl)c3)c2-c2c(F)ccc(F)c2C)cc1 [I-817]
17,> 200,OCCC[C@@H]1C[C@@H]2[C@@H](CCCN2c2cccc(F)c2)N1c1cc(N2CCCCC2)ccn1 [I-821]
18,< 10,C[C@H]1CC[C@H](O)CN1c1ccnc(N2CC[C@@H]3[C@H]2CCCN3c2cccc(F)c2)c1 [I-823]
19,< 10,C[C@@H]1CC[C@H](O)CN1c1ccnc(N2CC[C@@H]3[C@H]2CCCN3c2cccc(F)c2)c1 [I-824]
20,10 to 100,OCCC[C@H]1C[C@@H]2[C@@H](CCCN2c2cccc(F)c2)N1c1cc(N2CCCCC2)ccn1 [I-825]
21,< 10,COCCOCCC1CN(c2cc(N3CCOCC3)ccn2)[C@H]2CCCN(c3cccc(F)c3)[C@@H]12 (some centres unmarked) [I-827]
22,> 200,COCCOCCC1CN(c2cc(N3CCOCC3)ccn2)[C@@H]2CCCN(c3cccc(F)c3)[C@H]12 (some centres unmarked) [I-828]
23,10 to 100,OCCC[C@@H]1C[C@H]2[C@H](CCCN2c2cccc(F)c2)N1c1cc(N2CCCCC2)ccn1 [I-830]

row,Kd [µM],SMILES
1,10 to 100,OCCC[C@@H]1C[C@H]2[C@@H](CCCN2c2cccc(F)c2)N1c1cc(N2CCCCC2)ccn1 [I-831]
2,< 10,C[C@@H]1[C@H](O)CCCN1c1ccnc(N2CC[C@@H]3[C@H]2CCCN3c2cccc(F)c2)c1 [I-832]
3,< 10,C[C@H]1[C@@H](O)CCCN1c1ccnc(N2CC[C@@H]3[C@H]2CCCN3c2cccc(F)c2)c1 [I-833]
4,10 to 100,OCCC[C@H]1C[C@H]2[C@@H](CCCN2c2cccc(F)c2)N1c1cc(N2CCCCC2)ccn1 [I-834]
5,> 200,OCCC[C@H]1C[C@H]2[C@H](CCCN2c2cccc(F)c2)N1c1cc(N2CCCCC2)ccn1 [I-835]
6,> 200,CC(NC(=O)c1cn[nH]c1-c1cccc(Cl)c1)c1ccc[nH]1 (centres unmarked) [I-836]
7,> 200,C[C@@H](NC(=O)c1cn[nH]c1-c1c(F)cccc1F)c1ncc[nH]1 [I-839]
8,> 200,Fc1cccc(N2CCC[C@H](N3CCc4c(N5CC6CC(C6)C5)ccnc43)C2)c1 [I-840]
9,< 10,Fc1cccc(N2CCC[C@@H](N3CCc4c(N5CC6CC(C6)C5)ccnc43)C2)c1 [I-841]
10,< 10,Cc1c(F)ccc(F)c1-c1[nH]ncc1C(=O)N[C@@H](CC(=O)N1CCN(C)CC1)c1cccc(Cl)c1 [I-843]
11,> 200,OC[C@H]1CC[C@H](Nc2cc(N3CCCCC3)ccn2)CC1 [I-847]
12,< 10,C=CC(=O)N(C)CCCCC1CCN(c2ccnc(N3CC[C@@H]4[C@H]3CCCN4c3cccc(F)c3)c2)CC1 [I-850]
13,< 10,Cc1c(F)ccc(F)c1-c1c(C(=O)N[C@@H](CC(=O)N2CCNCC2)c2cccc(Cl)c2)c[nH]c1C(=O)c1ccccc1 [I-851]
14,> 200,O=C(O)c1cc2c(N3CCC[C@@H](Nc4cc(N5CCOCC5)ccn4)C3)cccc2s1 [I-855]
15,> 200,CSc1ccc(N2CCC[C@@H](Nc3cc(N4CCOCC4)ccn3)C2)c(Cl)c1 [I-857]
16,10 to 100,c1cc(N2CCOCC2)cc(N[C@@H]2CCCN(c3ccc4c(N5CCNCC5)ccnc4c3)C2)n1 [I-858]
17,10 to 100,COc1ncc2cc[nH]c2c1N1CCC[C@@H](Nc2cc(N3CCOCC3)ccn2)C1 [I-859]
18,10 to 100,OCCc1cccc(N2CCC[C@@H](Nc3cc(N4CCOCC4)ccn3)C2)c1 [I-861]
19,> 200,C[S@@+]([O-])c1ccc(N2CCC[C@@H](Nc3cc(N4CCOCC4)ccn3)C2)cc1 [I-864]
20,> 200,NCCc1cccc(N2CCC[C@@H](Nc3cc(N4CCOCC4)ccn3)C2)c1 [I-865]
21,> 200,NCc1cccc(N2CCC[C@@H](Nc3cc(N4CCOCC4)ccn3)C2)c1 [I-866]
22,10 to 100,NC(=O)CCc1ccc(N2CCC[C@@H](Nc3cc(N4CCOCC4)ccn3)C2)cc1 [I-869]
23,10 to 100,c1ccc(CN2CCc3ncnc(N4CCC[C@@H](Nc5cc(N6CCOCC6)ccn5)C4)c3C2)cc1 [I-870]
